This passage reports TGI and GI50 results from PubChem BioAssay (NCI).

Common to all, as to test: NCI-60 cell line screen, 48 h
The test system of assay [1] is SK-MEL-28 melanoma.
Assay [2] relates to SF-268 CNS.
Assay [3] has as its system UACC-62 melanoma.
The test system of assay [4] is SK-MEL-2 melanoma.
Assay [5] deals with PC-3 prostate.
Assay [6] relates to SF-295 CNS.
The test system of assay [7] is LOX IMVI melanoma.
Assay [8] has as its system NCI-H226 lung.
Assay [9] relates to COLO 205 colon.
The test system of assay [10] is CAKI-1 renal.
Assay [11] concerns UO-31 renal.
The subject of assay [12] is HT29 colon.
Assay [13] has as its system T-47D breast.
The test system of assay [14] is NCI-H23 lung.
In assay [15] the test system is NCI/ADR-RES ovarian.
The subject of assay [16] is HOP-92 NSCLC.
In assay [17] the test system is MDA-N.

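Test compounds were applied to cells in 96-well plates for 48 hours at 5 doses. GI50 is the concentration that inhibits growth by half. TGI: concentration producing complete growth inhibition.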 A value given as a limit tells only on which side of the number the result lay.

On to `c1ccc(CSc2nc(N3CCOCC3)c3cn[nH]c3n2)cc1`, for which the TGI in [1] was found to be 43.4 µM; in assay [2] it was 58.8 µM; in [3] it was 30.3 µM; in [4] it was 34 µM; in [5] it was 38.2 µM; in [6], 78 µM. Besides, the TGI in assay [7] is 44.1 µM; in assay [8], 73.1 µM; in [9], 30.4 µM; in assay [10], 57.5 µM; in assay [11] it was 38.4 µM; in assay [12], > 100 µM. Further, the TGI in assay [13] was 68.5 µM; in assay [14], > 100 µM; in assay [15], 55.6 µM.
Consider `O=C(CSCC(=O)N/N=C\c1ccc(-c2ccccc2)cc1)N/N=C\c1ccc(-c2ccccc2)cc1`, for which the TGI in [1] was > 100 µM; in assay [2] it was 53.9 µM; in [3], 62.4 µM; in assay [4], 83.4 µM; in [5], 88.1 µM; in assay [6], 40.9 µM. Moreover, the TGI in assay [7] is 32.4 µM; in [8], 84.5 µM; in assay [16] it was > 100 µM; in [9], > 100 µM; in [10] it was > 100 µM; in assay [11] it was > 100 µM. Moreover, the TGI in assay [12] was 76.6 µM; in assay [13] it was > 100 µM; in assay [14] it was 35.4 µM; in assay [15], > 100 µM.
Take `COc1ccc(C(C#N)NNc2nc(C)cc(=O)[nH]2)cc1OC` (configuration not stated): the TGI in assay [1], in assay [2], in assay [3], in [4], in assay [6] and in [7] was > 100 µM in each case. For the same compound, the TGI in assay [8], in assay [16], in [9], in assay [10], in [11] and in assay [12] was > 100 µM each time. Besides, in [14], the TGI was > 100 µM.
As for `COC(=O)c1csc(-c2nc(CCNC(=O)OC(C)(C)C)sc2Br)n1`, the TGI in assay [1], in assay [2], in assay [3], in assay [5], in assay [6] and in assay [8] was > 100 µM throughout. Also, the TGI in assay [9], in assay [17], in assay [11], in assay [12], in [14] and in assay [15] was > 100 µM each time.
Regarding `Cc1cn(Cc2ccccc2CCl)c(=O)[nH]c1=O`, the TGI stood at 45.5 µM in assay [1]; 38.1 µM in assay [2]; 28.2 µM in assay [3]; 33.8 µM in [4]; 44.2 µM in assay [5]; 30.4 µM in [6]. Besides, the TGI in assay [16] was > 100 µM; in assay [9], 45.7 µM; in assay [10] it was 24.8 µM; in assay [11], 24.8 µM; in assay [12], 79.7 µM; in assay [13], 44.8 µM. Also, the TGI in assay [14] stood at 23.3 µM; in assay [15], 36.2 µM.
On to `CN1CN(c2ccccc2)C2(CCN(CCc3csc4ccccc34)CC2)C1=O`, for which the TGI was 29.7 µM in assay [1]; > 100 µM in assay [2]; 38 µM in assay [3]; 33.5 µM in assay [5]; 32.8 µM in assay [7]; 39.6 µM in assay [8]. Moreover, the TGI in assay [9] came to 35.7 µM; in assay [10], 30.1 µM; in [11] it was 14.3 µM; in [12], 17.8 µM; in assay [13], 54.2 µM; in assay [14], 42.5 µM. The compound also registered a TGI in [15] of 28.1 µM.
Consider `CN=S(=O)(c1ccccc1)c1ccccc1`, for which the TGI in [1], in [2], in [3], in assay [4], in [6] and in assay [7] was > 100 µM throughout. The TGI in assay [8], in assay [16], in assay [9], in assay [10], in assay [11] and in assay [12] was > 100 µM each time. Moreover, the TGI in assay [14] was > 100 µM.
In the case of `COC(=O)C1C2C=CC(C2)N1[C@@H](C)c1ccccc1` (some centres not stated), the TGI in [1], in assay [2], in [3], in assay [4], in assay [6] and in assay [7] was > 100 µM in each case. Besides, the TGI in assay [16], in assay [9], in assay [10], in [11], in assay [12] and in assay [14] was > 100 µM throughout.
For the compound `CC(=O)OC1c2ccccc2CCCCCCC12OCCO2` (configuration not stated), the TGI in [1], in assay [2], in assay [3], in [4], in assay [6] and in assay [7] was > 100 µM throughout. For the same compound, the TGI in assay [8], in assay [9], in assay [10], in assay [11], in assay [12] and in assay [14] was > 100 µM in each case.
Turning to `CC(=O)NC1=C(C)C(=O)c2c(nc3n2CCC3O)C1=N` (configuration not stated), the TGI turned out to be 31 µM in assay [1]; 22.3 µM in assay [2]; 15.5 µM in assay [3]; 22 µM in assay [4]; 38 µM in assay [6]; 19.2 µM in assay [7]. The TGI was 33.1 µM in [8]; 15.3 µM in [16]; 33.4 µM in [9]; 27.7 µM in assay [10]; 46.6 µM in assay [11]; 33.5 µM in [12]. The compound further gave a TGI in assay [14] of 29.7 µM.
Turning to `NC(=O)N1N=C2c3ccccc3SC[C@H]2[C@@H]1c1ccccc1`, the TGI in assay [1] was 52.1 µM; in [2] it was > 100 µM; in [6] it was 80.4 µM; in [7] it was 32.4 µM; in assay [8], 53.2 µM; in assay [9], 43.4 µM. The TGI in [11] is 82.9 µM; in [12], 38 µM; in assay [14], > 100 µM.
As for `CCOc1cc(NC(C)=O)ccc1C(=O)NN1C(=O)/C(=C/c2cc(OC)c(OC)c(OC)c2)N=C1c1ccccc1`, the TGI in assay [1], in [2], in assay [3], in [6], in assay [7] and in [8] was > 100 µM in each case. For the same compound, the TGI in assay [16], in assay [9], in assay [17], in [10], in [11] and in [12] was > 100 µM each time. Also, the TGI in assay [14] and in assay [15] was > 100 µM each time.
On to `CC(C)=CCC/C(C)=C/CC/C(C)=C/CC/C(C)=C/CC/C(C)=C\CC/C(C)=C/CC/C(C)=C/CC/C(C)=C/Cc1cc(O)ccc1O`, for which the TGI in assay [1] was > 100 µM; in [2], 5.21 µM; in [3] it was 0.857 µM; in assay [4], 3.14 µM; in assay [5] it was 2.44 µM; in [6], 3.76 µM. For the same compound, the TGI was 4.65 µM in assay [8]; > 32.8 µM in assay [16]; > 100 µM in assay [9]; 0.703 µM in assay [10]; 5.71 µM in [11]; 3.81 µM in assay [12]. For the same compound, the TGI in assay [13] is 50.1 µM; in assay [14], 1.96 µM; in assay [15], 1.92 µM.
On to `COc1ccc(CC2NC(=O)/C=C/CC(C(C)C3OC3c3ccccc3)OC(=O)C(CC(C)C)OC(=O)C(C)CNC2=O)cc1Cl` (configuration not stated), for which the TGI in [1] is > 0.1 µM; in [2], > 0.1 µM; in assay [4], > 0.1 µM; in assay [5], > 0.1 µM; in [7], > 0.1 µM; in assay [8] it was 0.000127 µM. The TGI is > 0.1 µM in assay [16]; 2.12e-05 µM in [9]; > 0.1 µM in assay [10]; 0.000108 µM in assay [12]; > 0.1 µM in [14].
On to `COc1cc(CNc2ccc(C(C)C)cc2)cc(OC)c1OC`, for which the TGI in assay [1] is 72.7 µM; in assay [2], > 100 µM; in assay [3], 33 µM; in assay [4] it was 32.9 µM; in [7], 29.9 µM; in assay [16], 50.2 µM. In addition, the TGI in [10] stood at 45.1 µM; in assay [11], 45.3 µM; in [12] it was 33.3 µM; in assay [14], 45.5 µM. Besides, the GI50 in assay [10] was 16.9 µM.
As to `O=C(CSC(=S)N1CCOCC1)Nc1nc2c(s1)CCCC2`, the TGI in [1], in [2], in assay [4], in assay [6], in assay [7] and in [8] was > 100 µM in each case. In addition, the TGI in [16] was 96.2 µM; in [9], > 100 µM; in assay [11], > 100 µM; in assay [12], > 100 µM; in assay [14], > 100 µM.
As for `CC(C)C1CC(O)O[C@@H]([C@@H](C)[C@H]2CC(=O)[C@@H]3[C@@H]4[C@@H](O)[C@H](O)[C@H]5[C@@H](O)[C@H](O)CC[C@]5(C)[C@H]4CC[C@]23C)C1` (some centres not stated), the TGI in [1], in assay [2], in assay [3], in assay [4], in [6] and in assay [7] was > 100 µM throughout. Further, the TGI in assay [8] is > 100 µM; in assay [16], 57.1 µM; in assay [9] it was > 100 µM; in assay [11] it was > 100 µM; in assay [12], > 100 µM; in [14], > 100 µM.
Turning to `COc1ccc2c(c1)c1c(n2CCN2CCCCC2)-c2ccccc2CC1`, the TGI in assay [1] is 38.5 µM; in assay [2], 30 µM; in assay [4], 29.3 µM; in [5], 30.3 µM; in [6], 28.4 µM; in assay [7] it was 40.4 µM. For the same compound, the TGI stood at 19.3 µM in [8]; 31.9 µM in [16]; 29.5 µM in assay [9]; 26.9 µM in assay [10]; 26.1 µM in assay [11]; 17.2 µM in assay [12]. For the same compound, the TGI in [13] came to 35.6 µM; in assay [14], 31.9 µM; in [15], 33.2 µM.
On to `CCC(CC)n1c(C)nc2c1C(=O)c1ccccc1C2=O`, for which the TGI was > 100 µM in [1]; > 100 µM in assay [2]; 36.2 µM in [3]; > 100 µM in assay [4]; > 100 µM in assay [6]; 54.7 µM in assay [7]. Also, the TGI in assay [8] was > 100 µM; in assay [16], > 100 µM; in assay [9], > 100 µM; in assay [11], > 100 µM; in [12] it was > 100 µM; in assay [14] it was 54 µM.
On to `O=C1CCCCc2cccc(O)c21`, for which the TGI in assay [1], in [2], in assay [3], in assay [4], in assay [5] and in assay [6] was > 100 µM in each case. Moreover, the TGI in [7], in assay [8], in [16], in assay [9], in assay [10] and in assay [11] was > 100 µM in each case. Besides, the TGI in [12], in [13], in assay [14] and in [15] was > 100 µM each time.
Consider `COc1ccc(C2S/C(=C\c3ccc(O)cc3)C(=O)N2NC(=O)Cc2ccccc2)cc1` (configuration not stated), for which the TGI in assay [1], in [2], in [3], in assay [4], in assay [6] and in [7] was > 100 µM throughout. The TGI in [8], in assay [16], in [9], in assay [10], in assay [11] and in assay [12] was > 100 µM throughout. For the same compound, the TGI in assay [14] is > 100 µM.
